Data: patent publication US20090005443A1, “Treatment of Depression” (priority 2007, published 2009)
Values joined by “and” are separate entries in the source; they are usually repeats but may differ in a detail not shown here. Equal values may be shown once.

System: Patients with MDD
Type: in vivo
Conditions: for Ham-D change: baseline to end value, oral tablets, no visit qualifier given; for Ham-D change / Ham-D change (by penultimate visit): individual MDD patient; for Ham-D change (by penultimate visit): baseline to value by penultimate visit; for Reduction in patient depression, measured using the Hamilton-D rating scale: the five patients who completed the trial protocol (three tramadol, two amitriptyline)
Protocol: A Single Centre, Open Labelled, Comparative, Parallel Pilot Study to Evaluate the Antidepressant Activity of Tramadol in the Treatment of Major Depressive Disorder (MDD).
The investigational drug was administered in tablet form orally, with an initial dose of 200 mg daily for 2 weeks and then maintenance at 200-400 mg daily for a further 14 weeks.
Patients with MDD aged between 18 to 65 years old.
To evaluate the antidepressant activity of tramadol by comparing the change in Ham-D scores of patients with MDD when treated with tramadol as compared with amitriptyline.
Remission is defined as ≦7 on the 17 item Ham-D scale upon completion of week 8 of trial. Response is defined as ≧50% decrease from baseline depression on 17 item Ham-D score upon completion of week 8 of trial. Partial response is defined as <50% but ≧25% decrease from base line depression on 17 item Ham-D Scale. Recovery is defined as at least 8 weeks free from depression, as diagnosed according to DSM-IV-TR criteria.
This was a comparative, single centre, parallel, open-label randomized study in which half of the study population will receive tramadol and the other half will receive amitriptyline.
The primary endpoint is the treatment response of each study subject, as measured on the Ham-D 17-item scale (Hamilton Mass.). Study entry requires a Ham-D score of ≧15. To achieve remission, a cut-off score of ≦7 will be applied. Response will be defined as a ≧50% drop in score and a partial response will be defined as <50% but ≧25% drop in score. Recovery will be defined as at least 8 weeks free of major depression, as diagnosed according to DSM-IV-TR criteria.
In an open-label study comparing the treatment of Major Depressive Disorder with tramadol and amitriptyline, sixteen patients have been enrolled and five have completed the trial protocol. Of those five, three had received tramadol and two had received amitriptyline. […] A further eight patients are displaying solid therapeutic responses and there have been three drop-outs. Information on therapeutic responses of the first 12 patients is summarised below.

| Structure (SMILES) | Ham-D change (17-item Ham-D score) | Ham-D change (by penultimate visit) (17-item Ham-D score) | Drop-out because of AE (human, in vivo) | Reduction in patient depression, measured using the Hamilton-D rating scale | Ham-D change (by visit 4 of 7) (17-item Ham-D score, baseline to value by visit 4 of 7, individual MDD patient) |
| --- | --- | --- | --- | --- | --- |
| CN(C)CCC=C1c2ccccc2CCc2ccccc21 [Amitriptyline, amitriptyline] | 22 to 0 | 19 to 4 (by penultimate | Dropped out after Visit 2 | clinically significant reduction in patient depression | – |
| COc1cccc(C2(O)CCCCC2CN(C)C)c1 (centres unmarked) [Tramadol] | 23 to 0 | 26 to 0 (by penultimate and 26 to 4 (by penultimate (2×) | – | clinically significant reduction in patient depression | 18 to 16 (by visit 4 of 7) |
